According to patent publication US7094798B1, “Inhibitors of checkpoint kinases (Wee1 and Chk1)” (Pfizer Inc, priority 2002, dated 2006):
Read-outs that look alike come from different tables or passages of the source.

Key:
[1] = target: T1, human Wee1 kinase aa215-647 (Homo sapiens, UniProt P30291); test: Wee1 inhibition filter binding assay (OY); format: biochemical; details: isolated Wee1 kinase, Poly Ornithine:Tyrosine (4:1) substrate; read-out: WEE1OY IC50
T1 construct: human Wee1 kinase aa215-647; purchased Onyx Pharmaceuticals; host or cells: baculovirus protein expression system
T1 sequence (P30291 215-646 limits assumed): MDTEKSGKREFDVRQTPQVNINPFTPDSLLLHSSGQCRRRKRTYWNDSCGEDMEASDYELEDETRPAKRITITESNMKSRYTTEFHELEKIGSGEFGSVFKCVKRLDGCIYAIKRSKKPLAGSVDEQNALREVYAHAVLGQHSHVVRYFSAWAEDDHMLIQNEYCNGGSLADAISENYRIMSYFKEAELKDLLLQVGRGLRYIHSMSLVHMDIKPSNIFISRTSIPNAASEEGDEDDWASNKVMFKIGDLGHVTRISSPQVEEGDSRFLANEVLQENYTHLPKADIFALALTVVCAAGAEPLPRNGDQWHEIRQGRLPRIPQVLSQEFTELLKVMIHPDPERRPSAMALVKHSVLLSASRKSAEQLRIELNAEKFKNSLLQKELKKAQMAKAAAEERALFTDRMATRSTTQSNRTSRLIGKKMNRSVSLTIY
Protocol: This assay provides a measure of inhibitory ability of the test compounds against isolated Wee1 kinase.
The Wee1 kinase assay measures enzyme mediated phosphorylation of tyrosine on a synthetic peptide substrate in the presence of compounds being tested. […] Compounds were dissolved and diluted in DMSO, 10 μl 3×EDB buffer (150 mM Tris, pH 8.0, 30 mM NaCl, 30 mM MgCl2, 3 mM DTT), 18 μl water, and 2 μl of drug dilution were added to the test wells and mixed thoroughly, 10 μl of enzyme-substrate mixture was added to the wells. […] The plates were mixed thoroughly for 5 minutes at room temperature. […] The reaction was stopped by adding 50 μl of ice cold 20% TCA with 0.1 M tetrasodium pyro-phosphate. Plates were incubated on ice or refrigerated at 4° C. for 1 hour. Liquid reaction mixture was removed on a vacuum manifold, and the precipitated phosphorylated substrate was rinsed 5 times with 200 μl ice cold 10% TCA with 0.1 M tetrasodium pyrophosphate. 25 μl liquid scintillation cocktail were added to the membrane bound substrate and the plate read in a Microbeta (Perkin-Elmer) plate reader. Activity of compounds was calculated in comparison to uninhibited control determinations in each assay.

Chk1 enzyme = target: T2, Chk1 enzyme (Homo sapiens, UniProt O14757); test: Chk1 enzyme inhibition assay; format: biochemical; details: isolated Chk1 enzyme, GST-Cdc25 substrate; read-out: CHK1A IC50
T2 construct: purchased Onyx Pharmaceuticals
T2 sequence (O14757 1-476): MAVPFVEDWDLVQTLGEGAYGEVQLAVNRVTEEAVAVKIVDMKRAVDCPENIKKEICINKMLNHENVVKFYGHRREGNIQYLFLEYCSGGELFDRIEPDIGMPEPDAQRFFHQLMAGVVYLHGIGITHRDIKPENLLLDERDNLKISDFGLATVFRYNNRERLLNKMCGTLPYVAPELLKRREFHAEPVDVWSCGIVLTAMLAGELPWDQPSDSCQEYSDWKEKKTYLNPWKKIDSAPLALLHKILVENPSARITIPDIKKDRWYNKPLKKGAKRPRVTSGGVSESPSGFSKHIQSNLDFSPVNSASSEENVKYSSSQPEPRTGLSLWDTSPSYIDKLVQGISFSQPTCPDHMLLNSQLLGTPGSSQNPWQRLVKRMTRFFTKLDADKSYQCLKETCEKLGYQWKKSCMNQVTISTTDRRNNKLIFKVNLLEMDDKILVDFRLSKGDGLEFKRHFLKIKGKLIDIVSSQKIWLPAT
Protocol: The assay was carried out in round bottom polypropylene 96-well plates (Costar). Compounds were tested in serial dilutions beginning with a high concentration of 50 μM followed by up to nine 3-fold dilutions. Compounds were dissolved and diluted in DMSO. 2 μl of drug were spotted on the bottom of the assay plates, then diluted with 58 μl of Chk1 buffer (20 mM Tris, pH 8.0, 50 mM NaCl, 10% Glycerol, 10 mM MgCl2, 5 mM dithiothreitol), and mixed at room temperature for 1 minute. […] Contents of the wells were mixed for 1 minute and incubated at room temperature for 10 minutes. […] The contents were mixed for 1 minute and incubated at 30° C. for 30 minutes. The reaction was stopped by adding 50 μl of 120 mM EDTA to each well, except the control wells already containing EDTA. 140 μl of the contents of the wells were transferred to the wells of Reacti-Bind Glutathione Coated White 96-Well Plates (Pierce). Contents were mixed for 1 minute and incubated at room temperature for 1 hour. All of the wells were rinsed three times each with 300 μl PBS and air dried. 200 μl MicroScint 20 (Packard) was put in the wells. Plates were sealed with an adhesive cover and counted in a Top Count Microplate Scintillation counter (Packard). Activity of compounds was calculated in comparison to uninhibited control determinations in each assay.

[2] = target: T3, PKC contained in a rat brain preparation; test: Protein Kinase C (PKC) assay; format: biochemical; details: histone H1 substrate
T3 construct: Enzyme was prepared from a preparation of rat brain (Promega) 0.5 μg diluted with 1.6 ml of 10 mM Hepes buffer pH 7.5
Protocol: The PKC assay provides a measure of inhibitory activity of the test compounds against PKC contained in a rat brain preparation.
Enzyme was prepared from a preparation of rat brain (Promega) 0.5 μg diluted with 1.6 ml of 10 mM Hepes buffer pH 7.5. Reaction buffer was comprised of 150 mM Hepes buffer, 4 mM CaCl2, 15 mM MgCl2, 3 mM EDTA, 3.75 mM EGTA at pH 7.5. Histone substrate was made by dissolving histone H1 (Sigma) in water at 1.5 mg/ml. Phosphatidylserine/diolein liposomes were made by mixing 75 μl of 10 mg/ml phosphatidylserine (Sigma) in CHCl3 with 60 μl of 2.5 mg/ml diolein in CHCl3 (Sigma) in a glass vial and evaporating the CHCl3 under N2. The film was suspended in 1 ml water and sonicated 6×15 sec with a microtip probe at room temperature.
To carry out the assay, 50 μl buffer, 20 μl histone, 20 μl liposomes, and inhibitor or solvent control were added to wells of a 96-well filter plate (Millipore) with enough water, if necessary, to make the final volume 110 μl. 20 μl of enzyme preparation solution were added and incubated for 10 minutes at room temperature. This was followed by the addition of 20 μl of ^32P ATP (75 μM ATP in water, labeled ATP at 25 μCi/ml) which was incubated for 15 minutes at room temperature. The reaction was terminated by the addition of 50 μl of 40% (w/v) trichloroacetic acid. The filters were washed by vacuum filtration with 5×125 μl of ice cold 10% (w/v) trichloroacetic acid. The filters were placed in scintillation fluor and counted to determine precipitated labeled phosphate incorporated into substrate. The percent inhibition was calculated in comparison to the uninhibited controls.

[3] = system: L1210 murine leukemia tumor cells; test: Cell cycle distribution of L1210 cells treated in vivo; set-up: species or system mice; details: cisplatin 6 mg/kg, compound of Example 80 20 mg/kg, 24 hours after administration
HT-29 cells [4] = test: MPM-2 assay (mitotic index) in cultured HT-29 cells; format: cell-based; details: compound 312.5 nM
Protocol: This assay uses […] antibody to quantitate the M-phase specific histological markers in the determination of a mitotic index (fraction of cells found in mitosis).
HT-29 cells were grown in Dulbecco's Modified Eagle Medium with high glucose, supplemented with 1 mM sodium pyruvate, 2 mM L-glutamine, 16 mM HEPES, 8 mM MOPS, and 10% fetal bovine serum. They were incubated at 37° C. in an atmosphere of 5% CO2 and 100% relative humidity.
Cells were seeded in 96-well tissue culture plates at 100 μl per well at a concentration of 40,000 per ml. The cells were allowed to attach and begin growing for 24 hours. 100 μl of adriamycin (ADR) at 2 μM (final=1 μM) was added to test cells and the cells incubated for 1 hour as above. Following the incubation, the plates were washed 2 times with growth media. The media was replaced with 100 μl fresh media and incubate a further 16 hours. Serial 2-fold dilutions of potential abrogators were added to the test wells. The rows that received nocodazole (NOC) have 2 μl NOC added at 2.5 μg/ml. The plates were then incubated an additional 6 hours. Following the incubation, the plates were centrifuged for 5 minutes at 4° C. at 200 g. One hundred microliters of Carnoy's fixative, 3 parts methanol to 1 part acetic acid, was added directly to each well and left at room temperature for 15 minutes. The media/fixative mixture was removed by suction and replaced with ice cold ethanol:acetic acid in a 20:1 ratio. The plates were stored at 4° C. until stained.
The fixed cells were stained for MPM-2 using the Upstate Biotechnology MPM-2 rhodamine detection kit per manufacturer's instructions. Briefly, the cells were washed with Dulbecco's phosphate buffered saline (DPBS) with calcium and magnesium followed by incubation with blocking buffer consisting of 8% bovine serum albumen (BSA) for a minimum of 1 hour. The cells were then washed with PBS one time and treated overnight at 4° C. with primary antibody at 5 μg/ml (100 μl per well) diluted with DPBS with 1% BSA. The cells were then washed twice for 15 minutes each with DPBS and then incubated with a 1:1000 dilution of rhodamine conjugated goat antimouse IgG in DPBS with 1% BSA for 1 hour. The secondary antibody was washed off in three 30-minute washes with DPBS. The cells were then counterstained using the Molecular Probes Mycoflour kit to stain nuclei following the instructions for the kit.
The stained cells were viewed under fluorescence microscopy using fluorescence filters suitable for detecting rhodamine and DAPI stains. Images were captured using a Spot digital camera and images analyzed using ImageQuant to quantitate total nuclei and to count MPM-2 positive cells.

HT-29 cells [5] = test: Clonogenic assay in HT-29 cells ± Adriamycin; format: cell-based; details: Homo sapiens, compound 250 nM
Protocol: This cellular assay is a measure of the toxicity of the test compounds in the absence and presence of DNA damage induced by a conventional chemotherapeutic agent.
HT-29 cells were grown in Dulbecco's Modified Eagle Medium with high glucose, supplemented with 1 mM sodium pyruvate, 2 mM L-glutamine, 16 mM HEPES, 8 mM MOPS, and 10% fetal bovine serum. The cells were incubated at 37° C. in an atmosphere of 5% CO2 and 100% relative humidity.
Two or three T-75 tissue culture flasks were seeded at about 50% confluency in 30 ml media and incubated for approximately 24 hours. Adriamycin (ADR) (dissolved at 5 mM in distilled water (dH2O)) was added to the flasks to a final concentration of 1 uM or 500 nM. One flask received no ADR. The cells were allowed to incubate with the ADR for 1 hour. All flasks were then washed twice with 20 ml media allowed to incubate a further 16 hours in 30 ml media.
The stock agar (3.2% Seaplaque GTG Agarose (BioWhittaker Molecular Applications)) was suspended in distilled water and autoclaved for 20 minutes. The agar was melted prior to use in a microwave oven. […]
The cells were trypsinized using Trypsin-EDTA and their concentration adjusted to […] with media. […] The colonies were counted using a Hamamatsu video imaging system and ImageQuant software.

SMILES: COc1ccc2[nH]c3c(c2c1)C1C(=O)NC(=O)C1C(c1ccccc1Cl)C3 (mixture of isomers) [Example 68, 4-(2-Chlorophenyl)-9-methoxy-4,5,6,10c-tetrahydropyrrolo[3,4-c]carbazole-1,3(2H,3aH)-dione]
- IC50 [1]: 11 nM
- IC50 (Chk1 enzyme): 435 nM
- IC50 [2]: 480 nM

SMILES: N.N.[Cl][Pt][Cl] [Cisplatin, reference compound]
- Cell cycle distribution of L1210 cells, G1 [3]: 14.0%
- Cell cycle distribution of L1210 cells, G2M [3]: 59.6%
- Cell cycle distribution of L1210 cells, S [3]: 26.4%

SMILES: O=C1NC(=O)c2c1c(-c1ccccc1Cl)cc1c2c2cc(O)ccc2n1CCCO [Example 80, 4-(2-Chlorophenyl)-9-hydroxy-6-(3-hydroxypropyl)pyrrolo[3,4-c]carbazole-1,3(2H,6H)-dione]
- IC50 [2]: 1490 nM
- Cell cycle distribution of L1210 cells, G1 [3]: 60.0%
- Cell cycle distribution of L1210 cells, G2M [3]: 12.4%
- Cell cycle distribution of L1210 cells, S [3]: 27.6%

SMILES: O=C1NC(=O)c2c1c(-c1c(Cl)cccc1Cl)cc1c2c2cc(O)ccc2n1CCO [Example 94, 4-(2,6-Dichlorophenyl)-9-Hydroxy-6-(2-hydroxyethyl)pyrrolo[3,4-c]carbazole-1,3(2H,6H)-dione]
- IC50 [2]: 1800 nM

SMILES: CN(C)CCNC(=O)CCn1c2ccc(O)cc2c2c3c(c(-c4ccccc4)cc21)C(=O)NC3=O [Example 214, N-[2-(Dimethylamino)ethyl]-3-(9-hydroxy-1,3-dioxo-4-phenyl-2,3-dihydropyrrolo[3,4-c]carbazol-6 (1H)-yl)propanamide]
- IC50 [2]: 171 nM

SMILES: O=C(O)CCn1c2ccc(O)cc2c2c3c(c(-c4ccccc4Cl)cc21)C(=O)NC3=O [Example 230, 3-(4-(2-Chlorophenyl)-9-hydroxy-1,3-dioxo-2,3-dihydropyrrolo[3,4-c]carbazol-6 (1H)-yl)propanoic acid]
- IC50 [2]: 1500 nM

SMILES: CN(C)CCCOc1cc2c(cc1O)c1c3c(c(-c4ccccc4Cl)cc1n2C)C(=O)NC3=O [Example 363, 4-(2-Chlorophenyl)-8-[3-(dimethylamino)propoxy]-9-hydroxy-6-methylpyrrolo[3,4-c]carbazole-1,3(2H,6H)-dione]
- % of cells in M phase, + Media (HT-29 cells [4]; 6 hours): 26.4%
- % of cells in M phase, + ADR (HT-29 cells [4]; after ADR 1 μM 1 hour and 16 hours): 18.9%
- % of cells in M phase, + ADR + NOC (HT-29 cells [4]; after ADR 1 μM, with nocodazole 6 hours): 86.2%
- % of cells in M phase, + NOC (HT-29 cells [4]; with nocodazole 6 hours): 37.2%

SMILES: Cn1c2cc(OCCCN3CCCC3)c(O)cc2c2c3c(c(-c4ccccc4Cl)cc21)C(=O)NC3=O [Example 366, 4-(2-Chlorophenyl)-9-hydroxy-6-methyl-8-[3-(1-pyrrolidinyl)propoxy]pyrrolo[3,4-c]carbazole-1,3(2H,6H)-dione]
- activity at 0.25 µM (HT-29 cells [5]; Adriamycin pretreatment 1 hour, read-out: % of Control Colonies With DNA Damage): 2.8%
- activity at 0.25 µM (HT-29 cells [5]; no Adriamycin, read-out: % of Control Colonies With No DNA Damage): 38%

SMILES: O=C1NC(=O)c2c1c(-c1ccccc1)cc1oc3ccc(O)cc3c21 [Example 369, 9-Hydroxy-4-phenyl-1H-[1] benzofuro[3,2-e]isoindole-1,3(2H)-dione]
- IC50 [2]: > 4000 nM
